Measurements published in article PMC12771125, “Compounds Reducing Human Sperm Motility as Potential Nonhormonal Contraceptives Identified Using a High-Throughput Phenotypic Screening Platform” (ACS Omega, 2025).
Converted amounts (≈) assume the structure as drawn. Like-named read-outs stand apart in the source and are kept apart here.

Tests used:
human sperm = experiment: Reduction of sperm motility (RSM) high-throughput phenotypic assay; format: cell-based; conditions: Homo sapiens, reduction of progressive sperm motility relative to control
Method: Using our previously established phenotypic human sperm motility screening platform, we screened a large subset (62,621 compounds) of one of our in-house diversity libraries (National Phenotypic Screening Centre (NPSC) Diversity Set) (Figure A,B). Briefly, human sperm are collected, isolated from semen, distributed into 384-well plates with test compounds, time-lapse images of sperm movement are recorded using a high-content imager, and progressive motility parameters are calculated using custom data analysis software. Sperm motility is complicated, and the mechanisms underpinning its regulation are not fully understood. Progressive motility, which is a measurement of the movement of forward progression of sperm, is most closely linked to sperm quality, and the percentage of progressively motile sperm compared to control is therefore the parameter utilized during the work described in this paper. […]
We used an HTS screening platform to assess the motility of live human spermatozoa. The platform and its development are described in detail in Gruber et al. , and summarized below in brief. The platform was used to screen compound libraries specifically focusing on reduction in motility. Interesting compounds were examined in further detail as possible starting points for a medicinal chemistry program. The experimental design is illustrated in Figure .
Donors were local to the Dundee area, over the age of 18, and had no known fertility problems and normal sperm concentration, motility and semen characteristics according to WHO 2021 criteria. Special category personal data for donors, such as ethnic origin, was not recorded in accordance with ethical approval and UK GDPR. Samples were obtained by masturbation, after sexual abstinence of 2–5 days, and delivered to the research laboratory within one h of production. Samples were allowed to liquefy at 37 °C for 15–30 min prior to preparation by discontinuous density gradient centrifugation (DGC). […] A minimum of 3 prepared donor samples were routinely pooled to reduce donor-to-donor variability for primary screening assays. Pooled samples were incubated for 3 h at 37 °C under noncapacitating conditions.
In brief, screening batches of cells were transferred to a robotic platform (HighRes Biosolutions Inc.) and maintained during the screen at 37 °C at 5% CO2. Assay-ready 384-well plates containing compounds were prepared prior to the screen and filled with approximately 10,000 spermatozoa (20 μL) per well using a liquid handling system (MultiDrop Combi; ThermoFisher). These plates were incubated for 10 min prior to imaging. The HTS system utilized a Yokogawa CV7000 Cell Voyager high-throughput microscope to record time-lapse images from 2 positions in each well. An adaptation of a tracking algorithm, Trackpy v0.4.1 was utilized to track individual spermatozoa within each well and obtain kinematic parameters. Within the compound-test plates, DMSO was used as the vehicle control.
All steps were performed as previously described. , In summary, data from every compound well were normalized to those from in-plate DMSO controls (wells containing the same amount of DMSO as compound wells). Two positions were recorded in every well, and the average of those positions was used for calculating % of control (median value/DMSO median) × 100. Each plate contained 16 DMSO control wells. Median curvilinear velocity (VCL) was used as the primary readout for the NPSC Diversity Set screened at 6 μM, and percentage progressive motility (PM) was used for all other libraries screened. Hits from the primary screening were chosen based on the % change compared to the control. In these experiments, an RSM of ≥20% compared to negative controls (DMSO) was chosen as a cutoff for potential progression.
In a screening program of this scale, a significant number of compounds are likely to have a negative effect on sperm motility, but a number will show general toxicity. […]

HepG2 cells = experiment: HepG2 cytotoxicity assay (resazurin, 72 h); format: cell-based, human; conditions: Homo sapiens, HepG2, 72 h; read-out: HepG2 pEC50 (converted)
From the text: Our overarching aims for investigating our chemical series and deciding which ones had the potential for further progression were to achieve adequate potency in our motility assay, suitable solubility, and minimal cytotoxicity in HepG2 cells. This third point was often the most challenging, as multiple series had cytotoxicity in HepG2 cells. This observation is perhaps not surprising; many potential targets in sperm cells can also be found in somatic cells. Our cytotoxicity assay is run with an incubation time of 72 h, to give time for gross cytotoxic effects to become apparent.
Compound dilution curves were plated directly using a Labcyte Echo 550 acoustic dispenser (125 nL) in 384-well white clear-bottom plates (Greiner). HepG2 cells (ATCCHepG2 HB-8065) were cultured in minimum essential medium (supplemented with glutamax) with 10% FCS and plated (25 μL) using a WellMate dispenser ([…]) and incubated for 72 h. Doxorubicin was used as a positive control drug. Resazurin was then added to each well at a final concentration of 45 μM, and fluorescence was measured using a PHERAstar LS (BMG Labtech) after 4 h of further incubation (excitation of 528 nm and emission of 590 nm). Raw data were normalized to controls and expressed as % growth.
Figure S2: Concentration-response curves from high throughput HepG2 viability assay. Each compound was tested in duplicate and the curves of each replicate are shown. The reported values in the tables are an average of the 2 pEC50 values obtained. […]
determine 0% effect, positive control used to determine 100% effect).
Hit compounds 1a, 6b and 7a were repurchased from commercial suppliers including enamine and […]

Aqueous solubility = format: physicochemical
[1] = 10 min, 10 min incubation, reported <X (neg. log of top concentration) if largest reduction <70%, read-out: RSM pEC50 10 mins (converted)
[2] = 3 h incubation, reported <X if largest reduction <70%, read-out: RSM pEC50 3 hrs (converted)
[3] = 6 h incubation, reported <X if largest reduction <70%, read-out: RSM pEC50 6 hrs (converted)

Row | Compound | EC50 (human sperm; [1]) [µM] | EC50 (human sperm; [2]) [µM] | EC50 (human sperm; [3]) [µM] | EC50 (HepG2 cells) [µM] | solubility (Aqueous solubility) [µM]
1 | Cc1ccc2sc(NC(=O)C3CC3)nc2c1C [Compound 4m] | > 31.6 | > 31.6 | > 31.6 | > 100 | 5.5 (≈ 1.35 µg/mL)
2 | CCN(CC)C(=O)c1cc(Nc2ccnc3cc(Cl)ccc23)ccc1O [Compound 5d] | > 31.6 | > 31.6 | > 31.6 | > 100 | 4.9 (≈ 1.81 µg/mL)
3 | Oc1ccc(Nc2ccnc3cc(Cl)ccc23)cc1 [Compound 5e] | > 31.6 | > 31.6 | 0.316 | 79.4 | 3.5 (≈ 0.948 µg/mL)
4 | OC1CCC(Nc2ccnc3cc(Cl)ccc23)CC1 (centres unmarked) [Compound 5f] | > 31.6 | > 31.6 | > 31.6 | > 100 | 210 (≈ 58.1 µg/mL)
5 | COc1ccc(Nc2ccnc3cc(Cl)ccc23)cc1 [Compound 5g] | > 31.6 | > 31.6 | > 31.6 | > 100 | 4.9 (≈ 1.4 µg/mL)
6 | Oc1ccc(Nc2ccnc3cc(Cl)ccc23)cn1 [Compound 5i] | > 31.6 | > 31.6 | > 31.6 | > 100 | 220 (≈ 59.8 µg/mL)
7 | Oc1ccc(Nc2ccnc3cc(Cl)ccc23)nc1 [Compound 5j] | > 31.6 | > 31.6 | > 31.6 | > 100 | 6.7 (≈ 1.82 µg/mL)
8 | Clc1ccc2c(Nc3ccc4[nH]ccc4c3)ccnc2c1 [Compound 5k] | > 31.6 | > 31.6 | > 31.6 | 12.6 | 11 (≈ 3.23 µg/mL)
9 | Cc1ccc(Nc2cc(C)nn2-c2nc(C)cc(C)n2)cc1 [Compound 6b, 1-(4,6-Dimethylpyrimidin-2-yl)-3-methyl-N-(p-tolyl)-1H-pyrazol-5-amine] | > 31.6 | > 31.6 | 1.58 | > 100 | 1.1 (≈ 0.323 µg/mL)
10 | Cc1cc(Nc2ccccc2)n(-c2ccccc2)n1 [Compound 6c] | > 31.6 | > 31.6 | > 31.6 | > 100 | 81 (≈ 20.2 µg/mL)
11 | Cc1cc(C)nc(-n2nc(C)cc2NC(=O)c2ccccc2)n1 [Compound 6d] | > 31.6 | > 31.6 | > 31.6 | > 100 | 15 (≈ 4.61 µg/mL)
12 | Cc1cc(NC(=O)c2ccccc2)n(-c2ccccc2)n1 [Compound 6e] | > 31.6 | > 31.6 | > 31.6 | > 100 | 240 (≈ 66.6 µg/mL)
13 | c1ccc(-c2cc(N3CCCCC3)c3ccccc3n2)nc1 [Compound 7a, 4-(Piperidin-1-yl)-2-(pyridin-2-yl)quinoline] | > 25.1 | > 25.1 | 1.58 | > 100 | 10 (≈ 2.89 µg/mL)
14 | c1ccc(-c2cc(N3CCCCC3)c3ccccc3n2)cc1 [Compound 7b] | > 31.6 | > 31.6 | > 31.6 | > 100 | 0.6 (≈ 0.173 µg/mL)
15 | c1cncc(-c2cc(N3CCCCC3)c3ccccc3n2)c1 [Compound 7c] | > 31.6 | > 31.6 | > 31.6 | > 100 | 57 (≈ 16.5 µg/mL)
16 | c1ccc2c(N3CCCCC3)cc(N3CCOCC3)nc2c1 [Compound 7d] | > 31.6 | > 31.6 | > 31.6 | > 100 | 140 (≈ 41.6 µg/mL)
17 | c1ccc2c(N3CCCCC3)cc(N3CCCCC3)nc2c1 [Compound 7e] | > 31.6 | > 31.6 | > 31.6 | > 100 | 8.1 (≈ 2.39 µg/mL)
18 | c1ccc2c(N3CCCCC3)cc(N3CCCC3)nc2c1 [Compound 7f] | > 31.6 | > 31.6 | > 31.6 | 50.1 | 220 (≈ 61.9 µg/mL)
19 | CN1CCN(c2cc(N3CCCCC3)c3ccccc3n2)CC1 [Compound 7g] | > 31.6 | > 31.6 | > 31.6 | 50.1 | 210 (≈ 65.2 µg/mL)
